Data reported in patent EP3046573B1, “AMYLIN ANALOGUES” (Zealand Pharma A/S, priority 2013, dated 2015).
Where two headings read alike, the source gives them in different places. Numbered stars: 1 amine (or outer) side, 2 acyl side, 3 side chain; on linkers, the order of the positions; unused ones are H or OH. Bridge positions count the residues as written; N and C are the ends. Square brackets hold non-standard residues; d marks the D form. Peptide text beside a SMILES is read from it. * marks the point of attachment. C20 diacid = O=C(O)CCCCCCCCCCCCCCCCCCC(=O)*; γGlu = O=C(O)[C@H](CCC(=O)[*:2])N[*:1]; Hyp = O=C(O)[C@@H]1C[C@@H](O)CN1; NMeI = CC[C@H](C)[C@H](NC)C(=O)O; Sar = CNCC(=O)O

Columns and labels:
[1] = target: T1, human amylin receptor 3 (hAMYR3) consisting of hCTR2 co-expressed with human Receptor Activity Modifying Protein 3 (hRAMP3) (Homo sapiens, UniProt O60896+P30988); experiment: hAMYR3 assay: induction of cAMP (AlphaScreen cAMP Assay kit) in COS7 cells expressing hAMYR3; type: cell-based
T1 construct: expressed in transfected cells
T1 sequence (P30988 25-474): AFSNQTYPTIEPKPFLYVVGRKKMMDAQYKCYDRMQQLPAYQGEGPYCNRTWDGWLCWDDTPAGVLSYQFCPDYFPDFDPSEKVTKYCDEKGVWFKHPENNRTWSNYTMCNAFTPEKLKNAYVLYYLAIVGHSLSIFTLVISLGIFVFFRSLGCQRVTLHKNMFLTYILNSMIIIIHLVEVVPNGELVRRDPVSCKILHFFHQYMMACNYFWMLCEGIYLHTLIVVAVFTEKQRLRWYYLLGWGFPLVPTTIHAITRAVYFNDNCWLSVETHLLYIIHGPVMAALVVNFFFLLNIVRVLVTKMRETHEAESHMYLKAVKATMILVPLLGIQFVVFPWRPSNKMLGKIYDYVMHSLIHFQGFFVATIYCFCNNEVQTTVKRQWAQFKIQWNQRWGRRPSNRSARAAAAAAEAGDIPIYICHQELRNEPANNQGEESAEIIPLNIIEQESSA
T1 sequence (O60896 24-148 partner): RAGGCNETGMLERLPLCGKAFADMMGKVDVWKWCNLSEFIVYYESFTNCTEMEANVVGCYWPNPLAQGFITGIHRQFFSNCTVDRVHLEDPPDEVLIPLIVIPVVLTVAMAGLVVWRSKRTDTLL
Summary of the method: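 Stable COS7 clone co-expressing hCTR2 and hRAMP3, stimulated 15 min at 37° C with increasing peptide in Tyrode buffer pH 7.4 with 100 µM IBMX and 0.1% casein. cAMP measured by AlphaScreen after lysis; EC50 and % efficacy versus pramlintide from 4PL fit.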

[2] = Assessment of physical stability: fibril formation detected with Thioflavin T (ThT), lag-time; type: physicochemical; settings: 1 mg/ml peptide, 40 µM ThT, FND = Fibrillation not detected; for Fibrillation lag time (hours) pH 4.0 (Ac): 50 mM acetate buffer pH 4.0, 96 hours at 40°C; for Fibrillation lag time (hours) pH 7.0 (His): 50 mM histidine buffer pH 7.0, 96 hours at 40°C; for Fibrillation lag time (hours) pH 7.0 (Ph): 50 mM phosphate buffer pH 7.0, 96 hours at 40°C
Summary of the method: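 Test peptide at 1 mg/ml with 40 µM ThT in 50 mM phosphate (pH 7.0), 50 mM histidine (pH 7.0) or 50 mM acetate (pH 4.0), in triplicate, 40° C. for 96 h. Fluorescence read every 10 min after 300 s agitation. Lag-time (h) taken as intersection of linear fits to initial stable and growth phases.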

[3] = cAMP induction in COS7 cells expressing hAMYR3, average of a minimum of 3 determinations, read-out: hAMY R3 EC50

SMILES	EC50 [1, 3] [nM]	Fibrillation lag time (hours) pH 4.0 (Ac) [2]	Fibrillation lag time (hours) pH 7.0 (His) [2]	Fibrillation lag time (hours) pH 7.0 (Ph) [2]	EC50 [1] [nM]
CC[C@H](C)[C@@H](C(=O)N[C@@H](CC(C)C)C(=O)N[C@@H](CO)C(=O)N[C@@H](CO)C(=O)N[C@H](C(=O)N[C@@H](CCC(=O)O)C(=O)N[C@H](C(=O)NCC(=O)N[C@@H](CO)C(=O)N[C@@H](CCC(=O)O)C(=O)N[C@H](C(=O)N1CCC[C@H]1C(N)=O)[C@@H](C)O)C(C)C)[C@@H](C)O)N(C)C(=O)[C@H](C)NC(=O)CN(C)C(=O)[C@H](Cc1ccccc1)NC(=O)[C@H](CO)NC(=O)[C@H](CO)NC(=O)[C@H](CO)NC(=O)[C@H](CO)NC(=O)[C@H](CCCNC(=N)N)NC(=O)[C@H](Cc1c[nH]cn1)NC(=O)[C@H](CC(C)C)NC(=O)[C@H](Cc1ccccc1)NC(=O)[C@H](CCC(=O)O)NC(=O)[C@H](C)NC(=O)[C@H](CC(C)C)NC(=O)[C@H](CCCNC(=N)N)NC(=O)[C@H](C)NC(=O)[C@@H](NC(=O)[C@H](C)NC(=O)[C@@H]1CSSC[C@H](NC(=O)[C@H](CCCNC(=N)N)NC(=O)CC[C@H](NC(=O)CCCCCCCCCCCCCCCCCCC(=O)O)C(=O)O)C(=O)N[C@@H](CC(N)=O)C(=O)N[C@@H]([C@@H](C)O)C(=O)N[C@@H](C)C(=O)N[C@@H]([C@@H](C)O)C(=O)N1)[C@@H](C)O [Compound 118, [19CD]-isoGlu-RC()NTATC()ATARLAEFLHRSSSSF-Gly(Me)-A-Ile(Me)-LSSTEVGSETP-NH2] ({C20 diacid-γGlu}-RCNTATCATARLAEFLHRSSSSF[Sar]A[NMeI]LSSTEVGSETP-NH2; disulfide 2-7)	0.12	FND	FND	FND	–
CC[C@H](C)[C@@H](C(=O)N[C@@H](CC(C)C)C(=O)N[C@@H](CO)C(=O)N[C@@H](CO)C(=O)N[C@H](C(=O)N[C@@H](CCC(=O)O)C(=O)N[C@H](C(=O)NCC(=O)N[C@@H](CO)C(=O)N[C@@H](CCC(=O)O)C(=O)N[C@H](C(=O)N1CCC[C@H]1C(N)=O)[C@@H](C)O)C(C)C)[C@@H](C)O)N(C)C(=O)[C@H](C)NC(=O)CN(C)C(=O)[C@H](Cc1ccccc1)NC(=O)[C@H](CO)NC(=O)[C@H](CO)NC(=O)[C@H](CO)NC(=O)[C@H](CO)NC(=O)[C@H](CCCNC(=N)N)NC(=O)[C@H](Cc1c[nH]cn1)NC(=O)[C@H](CC(C)C)NC(=O)[C@H](Cc1ccccc1)NC(=O)[C@H](CCC(=O)O)NC(=O)[C@H](C)NC(=O)[C@H](CC(C)C)NC(=O)[C@H](CCCNC(=N)N)NC(=O)[C@H](CCC(N)=O)NC(=O)[C@@H](NC(=O)[C@H](C)NC(=O)[C@@H]1CSSC[C@H](NC(=O)[C@H](CCCNC(=N)N)NC(=O)CC[C@H](NC(=O)CCCCCCCCCCCCCCCCCCC(=O)O)C(=O)O)C(=O)N[C@@H](CC(N)=O)C(=O)N[C@@H]([C@@H](C)O)C(=O)N[C@@H](C)C(=O)N[C@@H]([C@@H](C)O)C(=O)N1)[C@@H](C)O [Compound 76, [19CD]-isoGlu-RC()NTATC()ATQRLAEFLHRSSSSF-Gly(Me)-A-Ile(Me)-LSSTEVGSETP-NH2] ({C20 diacid-γGlu}-RCNTATCATQRLAEFLHRSSSSF[Sar]A[NMeI]LSSTEVGSETP-NH2; disulfide 2-7)	0.24	FND	FND	FND	–
CC[C@H](C)[C@@H](C(=O)N[C@@H](CC(C)C)C(=O)N[C@@H](CO)C(=O)N[C@@H](CO)C(=O)N[C@H](C(=O)N[C@@H](CC(N)=O)C(=O)N[C@H](C(=O)NCC(=O)N[C@@H](CO)C(=O)N[C@@H](CC(N)=O)C(=O)N[C@H](C(=O)N1C[C@H](O)C[C@H]1C(N)=O)[C@@H](C)O)C(C)C)[C@@H](C)O)N(C)C(=O)[C@H](C)NC(=O)CN(C)C(=O)[C@H](Cc1ccccc1)NC(=O)[C@H](CC(N)=O)NC(=O)[C@H](CC(N)=O)NC(=O)[C@H](CO)NC(=O)[C@H](CO)NC(=O)[C@H](CCCNC(=N)N)NC(=O)[C@H](Cc1c[nH]cn1)NC(=O)[C@H](CC(C)C)NC(=O)[C@H](Cc1ccccc1)NC(=O)[C@H](CCC(=O)O)NC(=O)[C@H](C)NC(=O)[C@H](CC(C)C)NC(=O)[C@H](CCCNC(=N)N)NC(=O)[C@H](CCC(N)=O)NC(=O)[C@@H](NC(=O)[C@H](C)NC(=O)[C@@H]1CSSC[C@H](NC(=O)[C@H](CCCNC(=N)N)NC(=O)CC[C@H](NC(=O)CCCCCCCCCCCCCCCCCCC(=O)O)C(=O)O)C(=O)N[C@@H](CC(N)=O)C(=O)N[C@@H]([C@@H](C)O)C(=O)N[C@@H](C)C(=O)N[C@@H]([C@@H](C)O)C(=O)N1)[C@@H](C)O [Compound 105, [19CD]-isoGlu-RC()NTATC()ATQRLAEFLHRSSNNF-Gly(Me)-A-Ile(Me)-LSSTNVGSNT-Hyp-NH2] ({C20 diacid-γGlu}-RCNTATCATQRLAEFLHRSSNNF[Sar]A[NMeI]LSSTNVGSNT[Hyp]-NH2; disulfide 2-7)	–	FND	FND	FND	0.092
CC[C@H](C)[C@@H](C(=O)N[C@@H](CC(C)C)C(=O)N[C@H](CO)C(=O)N[C@@H](CO)C(=O)N[C@H](C(=O)N[C@@H](CC(N)=O)C(=O)N[C@H](C(=O)NCC(=O)N[C@@H](CO)C(=O)N[C@@H](CC(N)=O)C(=O)N[C@H](C(=O)N1CCC[C@H]1C(N)=O)[C@@H](C)O)C(C)C)[C@@H](C)O)N(C)C(=O)[C@H](C)NC(=O)CN(C)C(=O)[C@@H](Cc1ccccc1)NC(=O)[C@H](CC(N)=O)NC(=O)[C@H](CC(N)=O)NC(=O)[C@H](CO)NC(=O)[C@H](CO)NC(=O)[C@H](CCCNC(=N)N)NC(=O)[C@H](Cc1c[nH]cn1)NC(=O)[C@H](CC(C)C)NC(=O)[C@H](Cc1ccccc1)NC(=O)[C@H](CCC(=O)O)NC(=O)[C@H](C)NC(=O)[C@H](CC(C)C)NC(=O)[C@H](CCCNC(=N)N)NC(=O)[C@H](CCC(N)=O)NC(=O)[C@@H](NC(=O)[C@H](C)NC(=O)[C@@H]1CSSC[C@H](NC(=O)[C@H](CCCCN)NC(=O)CC[C@H](NC(=O)CCCCCCCCCCCCCCCCCCC(=O)O)C(=O)O)C(=O)N[C@@H](CC(N)=O)C(=O)N[C@@H]([C@@H](C)O)C(=O)N[C@@H](C)C(=O)N[C@@H]([C@@H](C)O)C(=O)N1)[C@@H](C)O [Compound 72, [19CD]-isoGlu-KC()NTATC()ATQRLAEFLHRSSNN-DPhe-Gly(Me)-A-Ile(Me)-L-DSer-STNVGSNTP] ({C20 diacid-γGlu}-KCNTATCATQRLAEFLHRSSNN[dF][Sar]A[NMeI]L[dS]STNVGSNTP-NH2; disulfide 2-7)	–	FND	FND	FND	0.098
CC[C@H](C)[C@@H](C(=O)N[C@@H](CC(C)C)C(=O)N[C@@H](CO)C(=O)N[C@@H](CO)C(=O)N[C@H](C(=O)N[C@@H](CCC(=O)O)C(=O)N[C@H](C(=O)NCC(=O)N[C@@H](CO)C(=O)N[C@@H](CCC(=O)O)C(=O)N[C@H](C(=O)N1CCC[C@H]1C(N)=O)[C@@H](C)O)C(C)C)[C@@H](C)O)N(C)C(=O)[C@H](C)NC(=O)CN(C)C(=O)[C@H](Cc1ccccc1)NC(=O)[C@H](CO)NC(=O)[C@H](CO)NC(=O)[C@H](CO)NC(=O)[C@H](CO)NC(=O)[C@H](CCCNC(=N)N)NC(=O)[C@H](Cc1c[nH]cn1)NC(=O)[C@H](CC(C)C)NC(=O)[C@H](Cc1ccccc1)NC(=O)[C@H](CCC(=O)O)NC(=O)[C@H](C)NC(=O)[C@H](CC(C)C)NC(=O)[C@H](CCCNC(=N)N)NC(=O)[C@H](CCC(=O)O)NC(=O)[C@@H](NC(=O)[C@H](C)NC(=O)[C@@H]1CSSC[C@H](NC(=O)[C@H](CCCNC(=N)N)NC(=O)CC[C@H](NC(=O)CCCCCCCCCCCCCCCCCCC(=O)O)C(=O)O)C(=O)N[C@@H](CCC(=O)O)C(=O)N[C@@H]([C@@H](C)O)C(=O)N[C@@H](C)C(=O)N[C@@H]([C@@H](C)O)C(=O)N1)[C@@H](C)O [Compound 134, [19CD]-isoGlu-RC()ETATC()ATERLAEFLHRSSSSF-Gly(Me)-A-Ile(Me)-LSSTEVGSETP-NH2] ({C20 diacid-γGlu}-RCETATCATERLAEFLHRSSSSF[Sar]A[NMeI]LSSTEVGSETP-NH2; disulfide 2-7)	0.65	FND	FND	FND	–
